Reference: ChEMBL document CHEMBL5725273, “Thienopyranones as kinase and epigenetic inhibitors” (2016)

How the values were obtained:
[1] = target: T1, Phosphatidylinositol 4,5-bisphosphate 3-kinase catalytic subunit delta isoform (Homo sapiens, UniProt O00329); assay: (§1) Inhibition Assay: Several TP Scaffold compounds were tested for inhibition activity against isoforms of PI3K (alpha, beta, gamma, and delta isoforms) and the bromodomain protein BRD4 at regions 1 (BRD4-1) and 2 (BRD4-2).
T1 sequence (O00329 whole entry): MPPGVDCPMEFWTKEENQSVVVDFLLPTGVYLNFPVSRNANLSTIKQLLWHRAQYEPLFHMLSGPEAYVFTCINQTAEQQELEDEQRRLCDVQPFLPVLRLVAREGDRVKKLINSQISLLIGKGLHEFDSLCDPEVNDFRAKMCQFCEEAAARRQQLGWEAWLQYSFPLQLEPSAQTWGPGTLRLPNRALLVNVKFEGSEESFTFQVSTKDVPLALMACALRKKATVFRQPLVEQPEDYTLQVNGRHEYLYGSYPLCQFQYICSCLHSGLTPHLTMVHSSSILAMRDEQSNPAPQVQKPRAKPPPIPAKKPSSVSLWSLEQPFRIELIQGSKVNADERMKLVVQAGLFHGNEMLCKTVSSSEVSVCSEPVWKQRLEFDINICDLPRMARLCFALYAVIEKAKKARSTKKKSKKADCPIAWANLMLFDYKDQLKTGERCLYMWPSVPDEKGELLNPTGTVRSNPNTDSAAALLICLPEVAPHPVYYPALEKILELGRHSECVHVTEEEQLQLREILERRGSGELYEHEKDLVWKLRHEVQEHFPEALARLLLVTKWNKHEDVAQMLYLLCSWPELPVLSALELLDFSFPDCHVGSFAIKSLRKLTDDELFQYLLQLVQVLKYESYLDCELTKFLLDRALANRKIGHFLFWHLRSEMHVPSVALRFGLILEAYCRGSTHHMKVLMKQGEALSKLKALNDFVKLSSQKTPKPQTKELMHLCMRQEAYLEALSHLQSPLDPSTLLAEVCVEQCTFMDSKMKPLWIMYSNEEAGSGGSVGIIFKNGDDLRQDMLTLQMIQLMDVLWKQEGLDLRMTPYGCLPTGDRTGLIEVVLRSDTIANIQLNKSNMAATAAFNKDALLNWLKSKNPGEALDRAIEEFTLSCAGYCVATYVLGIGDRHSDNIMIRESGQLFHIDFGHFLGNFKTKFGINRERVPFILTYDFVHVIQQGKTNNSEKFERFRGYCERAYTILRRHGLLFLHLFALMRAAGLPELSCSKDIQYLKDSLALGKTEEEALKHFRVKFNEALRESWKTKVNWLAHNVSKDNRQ

[2] = target: Phosphatidylinositol 4,5-bisphosphate 3-kinase catalytic subunit gamma isoform (Homo sapiens, UniProt P48736); assay: as §1
[3] = target: Phosphatidylinositol 4,5-bisphosphate 3-kinase catalytic subunit alpha isoform (Homo sapiens, UniProt P42336); assay: as §1
[4] = target: Bromodomain-containing protein 4 (Homo sapiens, UniProt O60885); assay: as §1

Phosphatidylinositol 4,5-bisphosphate 3-kinase catalytic subunit alpha isoform, sequence (P42336 whole entry, canonical isoform): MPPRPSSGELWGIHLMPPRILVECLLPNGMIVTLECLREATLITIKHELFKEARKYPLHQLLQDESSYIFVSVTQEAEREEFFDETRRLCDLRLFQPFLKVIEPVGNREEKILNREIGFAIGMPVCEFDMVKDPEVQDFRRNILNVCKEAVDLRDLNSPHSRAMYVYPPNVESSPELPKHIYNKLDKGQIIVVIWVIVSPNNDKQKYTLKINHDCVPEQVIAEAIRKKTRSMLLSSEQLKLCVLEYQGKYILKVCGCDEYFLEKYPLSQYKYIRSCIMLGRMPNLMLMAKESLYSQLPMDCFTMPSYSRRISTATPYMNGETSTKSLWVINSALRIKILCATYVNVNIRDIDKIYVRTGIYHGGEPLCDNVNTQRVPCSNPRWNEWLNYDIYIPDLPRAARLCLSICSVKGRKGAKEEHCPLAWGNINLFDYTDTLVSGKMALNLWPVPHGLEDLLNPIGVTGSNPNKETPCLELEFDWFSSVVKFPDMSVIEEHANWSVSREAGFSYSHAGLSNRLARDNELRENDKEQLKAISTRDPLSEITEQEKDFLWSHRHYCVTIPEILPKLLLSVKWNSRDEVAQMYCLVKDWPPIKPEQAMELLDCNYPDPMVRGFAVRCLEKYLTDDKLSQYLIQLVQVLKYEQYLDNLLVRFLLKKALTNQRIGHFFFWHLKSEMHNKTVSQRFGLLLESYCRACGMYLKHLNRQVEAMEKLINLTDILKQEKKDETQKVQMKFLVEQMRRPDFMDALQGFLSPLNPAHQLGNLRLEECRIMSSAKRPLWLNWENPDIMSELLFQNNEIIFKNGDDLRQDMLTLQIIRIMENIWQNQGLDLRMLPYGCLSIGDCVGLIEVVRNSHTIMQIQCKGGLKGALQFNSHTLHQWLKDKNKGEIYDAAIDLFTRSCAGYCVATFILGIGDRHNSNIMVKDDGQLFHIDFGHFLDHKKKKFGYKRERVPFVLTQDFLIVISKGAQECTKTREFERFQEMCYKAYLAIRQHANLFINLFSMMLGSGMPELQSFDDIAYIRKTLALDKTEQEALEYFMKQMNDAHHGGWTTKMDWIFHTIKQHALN
Phosphatidylinositol 4,5-bisphosphate 3-kinase catalytic subunit gamma isoform, sequence (P48736 whole entry, canonical isoform): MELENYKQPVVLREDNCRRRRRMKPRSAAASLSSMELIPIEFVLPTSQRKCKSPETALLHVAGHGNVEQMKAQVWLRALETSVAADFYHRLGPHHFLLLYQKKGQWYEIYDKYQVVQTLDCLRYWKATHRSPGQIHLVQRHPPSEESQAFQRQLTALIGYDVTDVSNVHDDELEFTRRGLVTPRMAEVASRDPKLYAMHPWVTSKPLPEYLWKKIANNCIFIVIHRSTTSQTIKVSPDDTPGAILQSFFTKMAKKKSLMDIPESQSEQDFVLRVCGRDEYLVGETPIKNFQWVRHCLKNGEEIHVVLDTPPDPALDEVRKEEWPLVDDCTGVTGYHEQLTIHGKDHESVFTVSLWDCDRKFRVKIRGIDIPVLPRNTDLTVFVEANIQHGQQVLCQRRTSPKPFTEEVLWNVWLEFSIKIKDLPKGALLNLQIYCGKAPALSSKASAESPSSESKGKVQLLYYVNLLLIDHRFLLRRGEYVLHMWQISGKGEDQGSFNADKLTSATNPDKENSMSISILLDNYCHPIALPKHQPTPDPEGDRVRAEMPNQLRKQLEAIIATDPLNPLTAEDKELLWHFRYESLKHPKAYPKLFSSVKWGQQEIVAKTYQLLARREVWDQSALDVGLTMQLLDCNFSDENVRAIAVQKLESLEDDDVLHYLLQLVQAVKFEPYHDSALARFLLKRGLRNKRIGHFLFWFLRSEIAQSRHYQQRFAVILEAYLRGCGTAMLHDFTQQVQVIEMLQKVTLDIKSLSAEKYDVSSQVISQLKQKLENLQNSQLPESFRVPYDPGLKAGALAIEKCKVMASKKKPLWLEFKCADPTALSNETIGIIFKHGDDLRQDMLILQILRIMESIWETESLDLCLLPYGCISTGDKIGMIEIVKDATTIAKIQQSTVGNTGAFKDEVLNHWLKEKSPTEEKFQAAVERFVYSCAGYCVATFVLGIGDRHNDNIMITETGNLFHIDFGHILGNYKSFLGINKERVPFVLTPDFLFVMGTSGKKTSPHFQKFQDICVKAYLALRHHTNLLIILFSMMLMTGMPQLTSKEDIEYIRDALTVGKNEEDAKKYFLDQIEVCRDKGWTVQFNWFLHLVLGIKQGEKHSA

IC50 [1]: 2490 nM | IC50 [2]: > 50000 nM | IC50 [3]: 29100 nM | IC50 [4]: 1010 nM
Structure (SMILES): CCOC(=O)c1ccc(-c2csc3c(=O)cc(N4CCSCC4)oc23)cc1
